From US20110144331A1, “Cinnoline Compounds for the Treatment of Anxiety, Cognitive and Mood Disorders” (AstraZeneca AB, priority 2005, published 2011)

Columns and labels:
[1] = target: T1, human α1β2γ2 GABAA receptor (Homo sapiens, UniProt P14867+P18507); assay: Two-electrode voltage-clamp in Xenopus oocytes, potentiation of GABA EC10 current, GABAA1; assay type: cell-based; settings: percentage potentiation of GABA EC10 current divided by that of diazepam control
T1 construct: expressed in transfected cells; host or cells: Xenopus laevis oocytes injected with capped cRNA
T1 sequence (P14867 28-456): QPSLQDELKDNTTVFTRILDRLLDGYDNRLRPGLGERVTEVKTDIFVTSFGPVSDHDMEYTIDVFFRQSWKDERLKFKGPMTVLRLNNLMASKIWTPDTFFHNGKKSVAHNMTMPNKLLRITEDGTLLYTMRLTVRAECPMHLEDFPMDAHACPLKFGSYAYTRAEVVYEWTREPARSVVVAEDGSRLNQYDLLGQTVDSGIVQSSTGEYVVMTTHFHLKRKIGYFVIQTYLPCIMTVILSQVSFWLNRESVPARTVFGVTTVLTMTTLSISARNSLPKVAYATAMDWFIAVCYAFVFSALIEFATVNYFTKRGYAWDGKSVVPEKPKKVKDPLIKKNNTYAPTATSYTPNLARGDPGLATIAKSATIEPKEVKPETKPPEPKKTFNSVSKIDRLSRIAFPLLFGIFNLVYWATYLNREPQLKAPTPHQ
T1 sequence (P47870 25-512 partner limits assumed): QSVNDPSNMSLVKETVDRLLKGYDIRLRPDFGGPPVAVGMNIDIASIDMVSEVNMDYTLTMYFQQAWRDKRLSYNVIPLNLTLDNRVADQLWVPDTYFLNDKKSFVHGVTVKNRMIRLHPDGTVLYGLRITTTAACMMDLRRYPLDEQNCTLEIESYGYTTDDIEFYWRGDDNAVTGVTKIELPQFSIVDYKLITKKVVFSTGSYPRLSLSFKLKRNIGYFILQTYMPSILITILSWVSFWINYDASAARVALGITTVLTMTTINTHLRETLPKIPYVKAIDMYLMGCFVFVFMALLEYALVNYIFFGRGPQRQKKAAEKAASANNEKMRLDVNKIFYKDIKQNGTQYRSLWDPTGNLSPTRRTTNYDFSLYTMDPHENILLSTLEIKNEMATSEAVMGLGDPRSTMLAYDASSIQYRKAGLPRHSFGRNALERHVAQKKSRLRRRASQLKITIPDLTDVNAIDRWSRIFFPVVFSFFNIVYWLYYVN
T1 sequence (P18507 40-475): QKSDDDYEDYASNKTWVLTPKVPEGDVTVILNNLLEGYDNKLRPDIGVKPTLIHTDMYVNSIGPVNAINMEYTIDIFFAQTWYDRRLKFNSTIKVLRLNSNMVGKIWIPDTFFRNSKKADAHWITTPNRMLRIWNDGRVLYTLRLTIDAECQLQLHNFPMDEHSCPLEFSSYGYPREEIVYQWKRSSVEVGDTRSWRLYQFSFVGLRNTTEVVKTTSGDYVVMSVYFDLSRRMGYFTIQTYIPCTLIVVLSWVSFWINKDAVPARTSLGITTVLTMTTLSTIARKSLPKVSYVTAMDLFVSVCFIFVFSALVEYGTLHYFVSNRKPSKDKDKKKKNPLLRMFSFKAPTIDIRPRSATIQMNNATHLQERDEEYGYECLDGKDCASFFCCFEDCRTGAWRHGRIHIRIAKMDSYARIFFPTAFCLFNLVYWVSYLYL
Description: (§1) GABAA receptors were heterologously expressed in Xenopus oocytes by injecting cRNA corresponding to human α1, α2, α3, α5, β2, β3 and γ2 subunits of the GABAA receptor genes. The specific subunit combinations (subtypes) were as follows: α1β2γ2, α2β3γ2, α3β3γ2, and α5β3γ2. The EC10 of GABA was approximated for each cell. Stability of GABA-mediated (EC10) current was established. Modulatory effect of test compound was determined and compared across subtypes. […] Thus, the assay can characterize modulatory effects and determine subtype selectivity of test compounds on major subtypes of GABAA receptors.
(§2) Surgically removed ovarian lobes were teased out in OR2 solution (82 NaCl, 2.5 KCl, 5 HEPES, 1.5 NaH2PO4, 1 MgCl2, 0.1 EDTA, in mM, pH 7.4). The oocytes were defolliculated by incubation in 25 mL OR2 containing 0.2% collagenase 1A (SIGMA) two times for about 60 minutes on a platform shaker and stored in Leibovitz's L-15 medium. Oocytes were injected the following day in 0.5× Leibovitz's L-15 medium containing […] gentamycin, 10 units/ml penicillin, and […] streptomycin.
(§3) Capped cRNAs from the linearized vectors containing human α1, β2 and γ2 subunits of the GABAA receptor genes were mixed in ratio of 1:1:30. Oocytes were injected with 25-50 nL of mixed RNA with an appx molar ratio for α1, β2, and γ2 as 1:1:10. Oocyte recordings were done 2-10 days after injection. The same methods apply to subtypes derived from α2β2γ2, α3β3γ2, and α5β3γ2, except for 1:1:1 ratio was used for α, β, and γ subunits.
(§4) All measurements were done in a medium containing ND-96 (96 NaCl, 2 KCl, 1.8 CaCl2.2H2O, 1 MgCl2.6H2O, 5 HEPES, in mM, pH 7.5). Two-electrode voltage-clamp recording was carried out using OpusXpress amplifier (Axon Instruments, Foster City, Calif.), which allows simultaneous recording from 8 oocytes. Oocytes were impaled with two electrodes of 1-2 MΩ tip resistance when filled with 3M KCl. Recordings were begun when membrane potential became stable at potentials negative to −50-−60 mV. Membrane potential was held at −60 mV. […] The concentration of GABA corresponded to the EC10 value calculated for each oocyte. The modulator pulses started 30 s before the GABA pulse so as to allow preincubation with the modulator. A set of 3 pulses with just GABA without modulator was given prior to the modulator-containing pulses to define the baseline GABA response. Two oocytes per each experiment were dedicated to observe the effect of diazepam on GABA response to ensure the presence of γ2 subunit in the GABAA pentameric complex, which imparts diazepam sensitivity to the complex.
(§5) Current amplitude (i) was measured from baseline to peak using Clampfit (Axon Inst., Foster City, Calif.). Potentiation was calculated as percent change from the baseline GABA current flux 100×(imod/icontrol)−1) where imod=current mediated by modulator+GABA and icontrol=current mediated by GABA alone. […] Similarly, a value of −50% potentiation means the presence of modulator caused a 50% decrease in the control current. Various other data shown here were fitted and plotted using GraphPad Prism (GraphPad Software, Inc. San Diego, Calif.). The percentage potentiation was converted to relative potentiation by dividing it with percentage potentiation value obtained from the same assay with diazepam as a control.

[2] = target: T2, human α2β3γ2 GABAA receptor (Homo sapiens, UniProt P18507+P47869); assay: Two-electrode voltage-clamp in Xenopus oocytes, potentiation of GABA EC10 current, GABAA2; assay type: cell-based; settings: percentage potentiation of GABA EC10 current divided by that of diazepam control
T2 construct: expressed in transfected cells; host or cells: Xenopus laevis oocytes injected with capped cRNA (α:β:γ 1:1:1)
T2 sequence (P47869 29-451): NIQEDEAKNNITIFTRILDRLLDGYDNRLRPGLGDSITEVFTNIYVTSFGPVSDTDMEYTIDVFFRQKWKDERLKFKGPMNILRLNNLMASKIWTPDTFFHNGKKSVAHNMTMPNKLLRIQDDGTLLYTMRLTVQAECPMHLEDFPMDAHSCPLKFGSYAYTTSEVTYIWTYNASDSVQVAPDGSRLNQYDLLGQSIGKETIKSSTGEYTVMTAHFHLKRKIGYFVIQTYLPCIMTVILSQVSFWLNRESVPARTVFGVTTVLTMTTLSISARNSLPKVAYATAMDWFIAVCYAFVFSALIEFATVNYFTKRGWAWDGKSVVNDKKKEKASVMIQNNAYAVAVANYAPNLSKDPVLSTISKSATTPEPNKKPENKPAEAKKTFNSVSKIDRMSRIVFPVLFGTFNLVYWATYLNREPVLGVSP
T2 sequence (P18507 40-475): as the sequence (P18507 40-475) above
T2 sequence (P28472 26-473 partner): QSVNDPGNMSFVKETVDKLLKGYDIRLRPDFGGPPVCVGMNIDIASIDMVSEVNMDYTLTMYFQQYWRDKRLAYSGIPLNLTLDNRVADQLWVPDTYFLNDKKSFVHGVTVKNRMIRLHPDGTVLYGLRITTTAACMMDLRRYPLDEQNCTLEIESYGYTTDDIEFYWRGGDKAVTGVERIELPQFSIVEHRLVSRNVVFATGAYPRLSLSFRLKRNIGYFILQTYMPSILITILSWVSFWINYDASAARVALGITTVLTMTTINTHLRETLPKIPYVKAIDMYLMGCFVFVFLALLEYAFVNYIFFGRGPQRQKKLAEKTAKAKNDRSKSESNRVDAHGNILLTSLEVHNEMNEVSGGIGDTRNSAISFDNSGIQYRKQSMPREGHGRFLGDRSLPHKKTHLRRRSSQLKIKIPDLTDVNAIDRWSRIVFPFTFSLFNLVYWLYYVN
Description: as §1, §2, §3, §4, §5

SMILES	Relative Potentiation for GABAA1 [1]	Relative Potentiation for GABAA2 [2]
CCCNC(=O)c1nnc2c(-c3cccc(C(=O)N4CCC4)c3)cccc2c1N	0.19	−0.0075
CCCNC(=O)c1nnc2c(-c3cnc(OC)c(Cl)c3)cccc2c1N	0.086	0.04
CCCNC(=O)c1nnc2c(-c3ccc(OC)cc3F)c(F)ccc2c1N	0.053	0.18
CCCNC(=O)c1nnc2c(-c3cc(OC)cc(OC)c3)c(F)ccc2c1N	0.38	–
CCCNC(=O)c1nnc2c(-c3cc(Cl)ccc3Cl)c(F)ccc2c1N	0.21	–
CCCNC(=O)c1nnc2c(-c3cnc4ccccc4c3)cccc2c1N	−0.15	0.11
CCCNC(=O)c1nnc2c(-c3ccsc3)cccc2c1N	−0.26	0.038
CCCNC(=O)c1nnc2c(-c3cc(F)ccc3OC)c(F)ccc2c1N	0.085	0.22
CCCNC(=O)c1nnc2c(-c3ccncc3)cccc2c1N	−0.038	0.1
CCCNC(=O)c1nnc2c(-c3cc(Cl)ccc3OC)cccc2c1N	0.38	0.4
CCCNC(=O)c1nnc2c(-c3cc(Cl)ccc3OC)c(F)ccc2c1N	0.25	–
CCCNC(=O)c1nnc2c(-c3ccccc3)c(OC)ccc2c1N	0.12	0.08
CCCNC(=O)c1nnc2c(-c3ccc(OC)c(OC)c3OC)cccc2c1N	0.47	0.33
CCCNC(=O)c1nnc2c(-c3cc(C)ccc3C)c(Cl)ccc2c1N	0.24	0.22
CCNC(=O)c1nnc2c(-c3ccc(OC)cc3OC)cccc2c1N	−0.006	0.104
CCCNC(=O)c1nnc2c(-c3cc(C)ccc3C)c(F)ccc2c1N	0.21	0.28
CCCNC(=O)c1nnc2c(-c3ccc(N(C)C)cc3)cccc2c1N	0.07	0.18
CCCNC(=O)c1nnc2c(-c3cc(F)ccc3F)c(F)ccc2c1N	0.013	0.098
Nc1c(C(=O)NCC2CC2)nnc2c(-c3ccccc3)cccc12	0.11	0.24
CCCNC(=O)c1nnc2c(-c3ccc(OC)cc3F)cccc2c1N	0	0.12

SMILES	Relative Potentiation for GABAA1 [1]	Relative Potentiation for GABAA2 [2]
CCCCNC(=O)c1nnc2c(-c3cc(C)ccc3OC)cccc2c1N	0.32	–
CCCNC(=O)c1nnc2c(-c3cc(Cl)cc(Cl)c3)c(F)ccc2c1N	0.36	–
CCCNC(=O)c1nnc2c(-c3cc(OC)cc(OC)c3)cccc2c1N	0.28	0.57
CCCNC(=O)c1nnc2c(-c3cnc(OC)nc3)cccc2c1N	−0.066	0.11
CCCNC(=O)c1nnc2c(-c3cc(C)ccc3F)cccc2c1N	0.095	0.37
CCCNC(=O)c1nnc2c(-c3cccc(Cl)c3)cccc2c1N	0.18	0.53
CCCNC(=O)c1nnc2c(-c3ccccc3)c(Cl)ccc2c1N	0.25	0.16
CCCNC(=O)c1nnc2c(-c3cccc(OC)c3)cccc2c1N	0.13	0.22
CCCNC(=O)c1nnc2c(-c3cc(F)ccc3OC)cccc2c1N	0.026	0.4
CCCNC(=O)c1nnc2c(-c3cc(F)c(OC)cc3F)cccc2c1N	0.016	0.21
CCCNC(=O)c1nnc2c(-c3ccc(OC)cc3OC)c(Cl)ccc2c1N	0.87	–
COc1ncccc1-c1cccc2c(N)c(C(=O)NC3CC3)nnc12	−0.054	0.247
CCCNC(=O)c1nnc2c(-c3c(Cl)cccc3OC)cccc2c1N [drawing 410]	−0.040	0.119
CCCNC(=O)c1nnc2c(-c3cc(OC)ccc3F)cccc2c1N	0.26	0.32
CCCNC(=O)c1nnc2c(-c3ccc(OC)c(C)c3)cccc2c1N	0.21	0.27
CCNC(=O)c1nnc2c(-c3cnc(OC)c(F)c3)cccc2c1N	−0.010	0.223
CCCNC(=O)c1nnc2c(-c3cccc(C#N)c3)cccc2c1N	0.088	0.31
CCCNC(=O)c1nnc2c(-c3cc(C)ccc3OC)c(F)ccc2c1N	0.23	0.37
CCCNC(=O)c1nnc2c(-c3ccc(F)cc3OC)cccc2c1N	0.12	0.38
CCCNC(=O)c1nnc2c(-c3cc(C)c(OC)c(C)c3)cccc2c1N	0.79	0.32

SMILES	Relative Potentiation for GABAA1 [1]	Relative Potentiation for GABAA2 [2]
CCCNC(=O)c1nnc2c(-c3ccc(OC)c(F)c3)cccc2c1N	0.03	0.19
CCCNC(=O)c1nnc2c(-c3cnc(OC)nc3OC)c(F)ccc2c1N	0.12	0.39
CCCNC(=O)c1nnc2c(-c3cccc(Cl)c3Cl)cccc2c1N	0.067	0.053
CCCCNC(=O)c1nnc2c(-c3cnccc3OC)cccc2c1N	0.2	0.52
CCCNC(=O)c1nnc2c(-c3cc(C)nn3C)cccc2c1N	0.23	0.18
CCCNC(=O)c1nnc2c(-c3cnn(C)c3)cccc2c1N	−0.16	0.16
CCCNC(=O)c1nnc2c(-c3cccc(OC(F)(F)F)c3)cccc2c1N	0.87	0.48
CCCNC(=O)c1nnc2c(-c3cc(F)cc(F)c3OC)c(F)ccc2c1N	0.1	0.14
CCCNC(=O)c1nnc2c(-c3ccccc3)c(F)ccc2c1N	−0.093	0.02
CCCNC(=O)c1nnc2c(-c3ccc(OC)c(OC)c3)cccc2c1N	0.33	0.28
CCCNC(=O)c1nnc2c(-c3ccc(OC)c(OC)c3OC)c(F)ccc2c1N	0.51	–
CCCNC(=O)c1nnc2c(-c3ccc(F)cc3OCC)c(F)ccc2c1N	0.27	–
CCCNC(=O)c1nnc2c(-c3ccc(OC)cc3C(F)(F)F)c(F)ccc2c1N	0.28	–
CCCNC(=O)c1nnc2c(-c3cc(OC)ccc3OC)c(Cl)ccc2c1N	0.32	–
CCCNC(=O)c1nnc2c(-c3cc(C)ccc3OC)c(Cl)ccc2c1N	0.47	–
CCNC(=O)c1nnc2c(-c3cc(C)ccc3OC)cccc2c1N	0.23	–
CCCNC(=O)c1nnc2c(-c3cc(C(=O)N4CCC4)ccc3OC)cccc2c1N	0.48	–
CCCNC(=O)c1nnc2c(-c3nc(Br)ccc3OC)cccc2c1N	0.34	–
